Laboratory results: patent publication US6773892B1, “Methods of identifying and determining the effectiveness of therapeutic processes or agents for the treatment of schizophrenia and related disorders” (Northeastern University, priority 1997, dated 2004)
Read-outs that look alike come from different tables or passages of the source.

How the values were obtained:
D4 receptor = molecular target: T1, D4 receptor (Homo sapiens, UniProt P21917); experiment: [14C] formate-labelled phospholipid methylation in CHO/D4 cells; assay type: cell-based; details: absence of agonist
T1 construct: expressed in transfected cells; host or cells: CHO cells
T1 sequence (P21917 1-419): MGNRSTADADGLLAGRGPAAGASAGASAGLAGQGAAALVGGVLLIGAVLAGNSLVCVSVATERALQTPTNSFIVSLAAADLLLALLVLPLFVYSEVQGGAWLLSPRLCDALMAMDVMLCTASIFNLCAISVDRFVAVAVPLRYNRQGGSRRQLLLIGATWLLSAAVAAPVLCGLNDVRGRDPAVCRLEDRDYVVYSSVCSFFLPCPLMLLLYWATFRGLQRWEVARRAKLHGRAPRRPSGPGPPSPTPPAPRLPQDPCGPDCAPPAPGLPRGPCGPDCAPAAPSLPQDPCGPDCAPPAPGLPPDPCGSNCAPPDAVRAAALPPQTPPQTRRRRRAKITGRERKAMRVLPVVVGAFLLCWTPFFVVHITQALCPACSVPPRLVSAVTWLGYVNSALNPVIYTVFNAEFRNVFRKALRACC
Procedure: CHO cells transfected with the D4 receptor gene were fed with minimum essential medium (alpha modifications, with or without nucleosides) (pH 7.2) containing 2 mM L-glutamine, W/G418 antibiotic (400 mg/L), donor horse serum (2.5%), fetal bovine serum (2.5%), penicillin/streptomycin/fungizone (1%), CuSO4 (10^−6M). Cells (200,000 cells/well) were plated in 6-well- plates and placed in 5% CO2 incubator at 37° C.
Two-day-old confluent, cultured D4-transfected CHO cells were used for assay. The pH of Hank's balanced buffer (HBSS) was adjusted to pH 7.4 using sodium bicarbonate buffer. [^14C]-formic acid (1 μCi/ml) and pharmacological agents were added to HBSS. Feeding medium was removed from the well and then 600 μl of the HBSS solution with the radiolabelled formic acid (warmed to 37° C.) was added to each well of 6-well-plates. Plates were incubated at 37° C. for 30 minutes in the culture incubator. The reaction was stopped by washing once with ice-cold PBS (pH 7.4) and, after aspirating off the HBSS, 500 μl of 10% trichloroacetic acid (TCA) was added. Cells were harvested by scraping with a cell scraper and transferred into a plastic microcentrifuge tube. […] CPM values were normalized to the protein content of each sample and expressed as the mean +/− S.E.M. for the group. Differences between groups were analyzed by a t-test with p<0.05 as the criterion for significance.

dopamine D4 receptors = molecular target: T2, dopamine D4 receptors (Homo sapiens, UniProt P21917); details: Schlacter et al., Soc. Neurosci. Abstr. 1995; read-out: reported KD; cited from earlier work
T2 sequence (P21917 1-419): T1 sequence (P21917 1-419)

SK-N-MC cells = SK-N-MC cells grown in the presence of nucleosides
lymphocytes = details: for stimulation of phospholipid methylation: dopamine (10 μM) and GTP (1 μM); for inhibition of phospholipid methylation below basal: haloperidol 1 μM with dopamine/GTP
Text: In an early hypothesis (“the transmethylation hypothesis”), a defect resulting in the formation of hallucinogens was proposed. […] To determine whether D4 receptor-dependent phospholipid methylation was altered in individuals with schizophrenia, males ages 27-70 with well documented schizophrenia by DSM-IV criteria, were studied and compared with normal controls.
To determine whether D4 receptor-dependent phospholipid methylation was altered in schizophrenia, the labelling of phospholipids by [^3H]-methyl-methionine in lymphocytes obtained from people with schizophrenia (as defined by DSM IV diagnostic criteria Diagnostic and Statistical Manual of Mental Disorders (4th Edition), American Psychiatric Association, Washington, D.C., […], pp. 759-764) under medical treatment) was measured as compared to lymphocytes from healthy controls. Lymphocytes were isolated as previously described (De La Rosa et al., J. Biol. Chem. 267:10699, 1992) and aliquots of 4×10^6 cells were resuspended in Hank's balanced salt solution containing 8 μCi/ml [^3H-methyl]methionine for 60 min. […] Incorporation of [^3H-methyl] label into phospholipids was determined as described in Example I.

[1] = lymphocytes of schizophrenia patients

For `CC(C)Oc1cccnc1N(C)C1CCN(Cc2ccccc2)CC1` [U-101,958], the “effect on [14C] formate-labelled phospholipid methylation, FIG. 3b” value (D4 receptor; CHO/D4 cells grown in nucleoside-free medium) is listed as “dose-dependent inhibition”, the IC50 (D4 receptor; CHO/D4 cells, read-out: IC50 of inhibition of phospholipid methylation) is listed as 0.2 nM and the Kd (dopamine D4 receptors) is listed as 1 nM.
In the case of `NCCc1ccc(O)c(O)c1` [dopamine], the “effect on [14C] formate-labelled phospholipid methylation, FIG. 3c” value (SK-N-MC cells) is reported as “dose-dependent dopamine stimulation”, the “stimulation of phospholipid methylation” value (lymphocytes; lymphocytes of normal controls) is reported as 30% and the “stimulation of phospholipid methylation” value (lymphocytes; [1]) is reported as 165%.
For `O=C(CCCN1CCC(O)(c2ccc(Cl)cc2)CC1)c1ccc(F)cc1` [haloperidol], the “effect on methyl incorporation into phospholipids, FIG. 4B” value (lymphocytes; both control and schizophrenia lymphocytes, dopamine 10 μM and GTP 1 mM, with or without haloperidol 1 μM) was “significant decrease”, the “inhibition of phospholipid methylation below basal” value (lymphocytes; lymphocytes of normal controls) was 25% and the “inhibition of phospholipid methylation below basal” value (lymphocytes; [1]) was 39%.
